The values that follow come from BindingDB's records for doi:10.1016/0960-894X(95)00162-M (1995).

This test has as its target Beta-lactamase TEM (Escherichia coli) (UniProt P62593). Kind of test: Kd for TEM-1 beta-lactamase.

The structures appear in SMILES notation.

Chain of Beta-lactamase TEM (Escherichia coli) (P62593 whole entry, looked up): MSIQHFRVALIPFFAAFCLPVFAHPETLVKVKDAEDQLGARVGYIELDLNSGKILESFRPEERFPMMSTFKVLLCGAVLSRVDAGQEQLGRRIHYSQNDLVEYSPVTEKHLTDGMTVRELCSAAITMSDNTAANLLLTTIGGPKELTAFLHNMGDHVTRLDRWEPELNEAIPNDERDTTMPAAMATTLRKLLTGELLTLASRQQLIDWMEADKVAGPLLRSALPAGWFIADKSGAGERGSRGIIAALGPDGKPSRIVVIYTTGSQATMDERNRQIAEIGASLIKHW

As to `C/C=C1\O[C@@H]2CC(=O)N2[C@H]1C(=O)O` [Sodium; (2R,5R)-3-eth-(Z)-ylidene-7-oxo-4-oxa-1-aza-bicyclo[3.2.0]heptane-2-carboxylate], the Kd – broadly, the constant that tells how readily two partners part at equilibrium – amounted to 800 nM.
